Like-named read-outs stand apart in the source and are kept apart here.
Legend:
[1] = molecular target: T1, Recombinant Rhinovirus 3C protease (RVP) serotype-14 (Human rhinovirus 14, UniProt P03303); test: Inhibition of Rhinovirus Protease (fluorescence resonance energy transfer assay), serotype 14; format: biochemical, human rhinovirus (HRV); settings: RVP serotype-14; for kobs/I: progress curves in enzyme start experiments; for INHIB (percent inhibition): 10 minute preincubation with 50 nM RVP; for Ki: 10 minute preincubation, substrate start, read-out: INHIB (Ki)
T1 construct: Recombinant Rhinovirus 3C proteases from serotypes 14, 16, 2 or 89; made in house
T1 sequence (P03303 1538-1719): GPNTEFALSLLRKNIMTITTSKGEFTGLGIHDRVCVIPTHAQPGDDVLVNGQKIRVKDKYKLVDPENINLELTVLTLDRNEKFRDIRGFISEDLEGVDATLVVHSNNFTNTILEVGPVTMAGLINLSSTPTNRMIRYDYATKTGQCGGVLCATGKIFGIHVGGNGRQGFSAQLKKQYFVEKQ
Experimental: Stock solution (50 mM, in DMSO) of various compounds were prepared; dilutions were in the same solvent. […] Assays contained 2% DMSO, 50 mM tris pH 7.6, 1 mM EDTA, a compound at the indicated concentrations, approximately 1 μM substrate, and 50-100 nM protease. […] The kobs/I values were obtained from reactions initiated by addition of enzyme rather than substrate. RVP activity is measured in the fluorescence resonance energy transfer assay. […] In the uncleaved peptide, the EDANS fluorescence was quenched by the proximal DABCYL moeity. When the peptide was cleaved, the quenching was relieved, and activity was measured as an increase in fluorescence signal.
In the above table, all data is RVP serotype-14 unless otherwise noted in parentheses. All strains of human rhinovirus (HRV) were purchased from American Type Culture Collection (ATCC), except for serotype 14, which was produced from the infectious cDNA clone constructed and supplied to us by Dr. Roland Rueckert at the Institute for Molecular Virology, University of Wisconsin, Madison, Wisc. […] The data in the column designated kobs/I was measured from progress curves in enzyme start experiments.

[2] = system: HRV-14; test: Antirhinoviral HI-HeLa Cell Culture Assay (Cell Protection Assay, XTT dye reduction); format: cell-based, human rhinovirus (HRV) serotype-14; settings: HI-HeLa cells infected with HRV-14, m.o.i. 0.13; two days; XTT; read-out: EC50
Experimental: In the Cell Protection Assay, the ability of compounds to protect cells against HRV infection was measured by the XTT dye reduction method. This method is described in Weislow, O. S., R. Kiser, D. L. Fine, J. Bader, R. H. Shoemaker, and M. R. Boyd, J. Natl. Cancer Inst. 1989, 81, 577-586, which is incorporated herein by reference.
(§1) HI-HeLa cells were infected with HRV-14 at a multiplicity of infection (m.o.i.) of 0.13 (virus particles/cell) or mock-infected with medium only. Infected or mock-infected cells were resuspended at 8×10^5 cells per mL and incubated with appropriate concentration of compounds of formulas I and II. Two days later, XTT/PMS was added to test plates and the amount of formazan produced was quantified spectrophotometrically at 450/650 nm. […] The therapeutic index (TI) was calculated by dividing the CC50 by the EC50.
(§2) All strains of human rhinovirus (HRV) for use in this assay were purchased from American Type Culture Collection (ATCC), except for HRV serotype-14, which was produced from the infectious cDNA clone, constructed and supplied to us by Dr. Roland Rueckert at the Institue for Molecular Virology, University of Wisconsin, Madison, Wisc. HRV stocks were propagated, and antiviral assays were perforemd in HI-HeLa cells (ATCC). Cells were grwon in Minimal Essential Medium, available from Life Technologies, with 10% fetal bovine serum.
The compounds were tested against control compounds WIN 51711, WIN 52084, and WIN 54954, all obtained from Sterling-Winthrop Pharmaceuticals, and control compound Pirodavir, obtained from Janssen Pharmaceuticals.

[3] = system: HI-HeLa cells; test: Cytotoxicity in mock-infected HI-HeLa cells (antirhinoviral assay, XTT); format: cell-based
Experimental: as §1, §2

[4] = mock-infected HI-HeLa cells, two days, XTT, read-out: CC50

SMILES	kobs/I [1]	EC50 [2]	CC50 [3, 4]	INHIB (percent inhibition) ([1]; 0.1 μM compound)	CC50 [3]	INHIB (percent inhibition) ([1]; 5 μM compound)	Ki [1]	INHIB (percent inhibition) ([1]; 10 μM compound)	INHIB (percent inhibition) [1]
CCOC(=O)/C=C/[C@H](CCC(N)=O)NC(=O)[C@H](Cc1ccc(OC(C)=O)cc1)NC(=O)[C@H](CC(C)C)NC(=O)OCc1ccccc1 [Compound 100]	1,200 M-1 sec-1	11.1 µM	> 320 µM						
CCOC(=O)/C=C/[C@H](CCC(N)=O)NC(=O)[C@H](Cc1ccc(OP(=O)(O)O)cc1)NC(=O)[C@H](CC(C)C)NC(=O)OCc1ccccc1 [Compound 105]	1,200 M-1 sec-1	14 µM	> 320 µM						
CCOC(=O)/C=C/[C@H](CCC(N)=O)NC(=O)[C@H](Cc1ccc(Cl)cc1)NC(=O)c1cc2c(OC)cccc2[nH]1 [Compound 26, Ethyl-3-[N-(4-Methoxyindole-2-Carbonyl)-L-(4-Cl-Phe)-L-Gln]-E-Propenoate]	5,400 M-1 sec-1	2 µM		52(0.1) percent	44.7 µM				
CC(C)C[C@H](NC(=O)OCc1ccccc1)C(=O)N[C@@H](Cc1ccccc1)C(=O)N[C@H](/C=C/S(=O)(=O)c1ccccc1)CCC(N)=O [Compound 10, Phenyl-[2-(CBZ-L-Leu-L-Phe-L-Gln)-E-Vinyl]Sulfone]	270 M⁻¹ s⁻¹	200 µM			> 320 µM	55(5) percent			
CC(C)C[C@H](NC(=O)OCc1ccccc1)C(=O)N[C@@H](Cc1ccccc1)C(=O)N[C@H](/C=C/C(=O)C(C)(C)C)CCC(N)=O [Compound 52]	15,000 M-1 sec-1	1.7 µM			5.6 µM				
CCN(CC)c1ccc(C(=O)/C=C/[C@H](CCC(N)=O)NC(=O)[C@H](Cc2ccccc2)NC(=O)[C@H](CC(C)C)NC(=O)OCc2ccccc2)cc1 [Compound 43]	4,500 M-1 sec-1	10 µM			18 µM				
CCOC(=O)/C(C)=C/[C@H](CCC(N)=O)NC(=O)[C@H](Cc1ccc(F)cc1)NC(=O)[C@@H](NC(=O)SC1CCCC1)C(C)(C)C [Compound 177, Ethyl-2-Methyl-3-[Cyclopentylthiocarbonyl-L-α-(t-Butyl-Gly)-L-(4-F-Phe)-L-Gln]-E-Propenoate]	80,300 M-1 sec-1	0.5 µM			> 100 µM				
CCOC(=O)/C=C/[C@H](CCC(N)=O)NC(=O)[C@H](Cc1ccc(F)cc1)NC(=O)[C@@H](NC(=O)SC1CCCC1)C(C)(C)C [Compound 176, Ethyl-3-[Cyclopentylthiocarbonyl-L-α-(t-Butyl-Gly)-L-(4-F-Phe)-L-Gln]-E-Propenoate]	240,000 M-1 sec-1	0.14 µM			> 100 µM		0.48 µM		
CCOC(=O)/C(C)=C/[C@H](CCC(N)=O)NC(=O)[C@H](Cc1ccccc1)NC(=O)[C@H](CC(C)C)NC(=O)OCc1ccccc1 [Compound 82]	7,300 M-1 sec-1	3 µM			> 320 µM		26 µM		
CCOC(=O)/C=C/[C@H](CCC(N)=O)NC(=O)[C@H](CSCC)NC(=O)[C@H](CC(C)C)NC(=O)OCc1ccccc1 [Compound 143]	2,963 M-1 sec-1	10 µM			> 320 µM				
CCOC(=O)/C(C)=C/[C@H](CCC(N)=O)NC(=O)[C@H](Cc1ccccc1)NC(=O)[C@@H](NC(=O)SCC)C(C)(C)C [Compound 168, Ethyl-2-Methyl-3-[Ethylthiocarbonyl-L-α-(t-Butyl-Gly)-L-Phe-L-Gln]-E-Propenoate]	37,800 M-1 sec-1	0.32 µM			> 100 µM				
CCOC(=O)/C=C/[C@H](CCC(N)=O)NC(=O)[C@H](Cc1ccccc1)NC(=O)[C@H](CC(C)C)NC(=O)C1CCCC1 [Compound 116]	23,670 M-1 sec-1	0.6 µM			> 320 µM				
CCOC(=O)/C=C/[C@H](CCC(N)=O)NC(=O)[C@H](Cc1cccc(F)c1)NC(=O)c1cc2c(OC)cccc2[nH]1 [Compound 28, Ethyl-3-[N-(4-Methoxyindole-2-Carbonyl)-L-(3-F-Phe)-L-Gln]-E-Propenoate]	4,000 M-1 sec-1	4.5 µM			63.1 µM		57 µM		
CCOC(=O)/C=C/[C@H](CCC(N)=O)NC(=O)[C@H](Cc1ccc(OCC)cc1)NC(=O)[C@H](CC(C)C)NC(=O)OCc1ccccc1 [Compound 136]	4,210 M-1 sec-1	> 320 µM			> 320 µM				
CCOC(=O)/C=C/[C@H](CCC(N)=O)NC(=O)[C@H](Cc1ccccc1)NC(=O)[C@H](C)NC(=O)OCc1ccccc1 [Compound 101]	11,288 M-1 sec-1	2 µM	> 320 µM						
CCCS(=O)(=O)N[C@@H](Cc1ccccc1)C(=O)N[C@H](/C=C/C(=O)OCC)CCC(N)=O [Compound 31, Ethyl-3-[N-(Propylsulfonyl)-L-Phe-L-Gln]-E-Propenoate]	21 M⁻¹ s⁻¹	50.1 µM			> 100 µM			25(10) percent	
CCOC(=O)/C=C/[C@H](CCC(N)=O)NC(=O)[C@H](Cc1ccccc1)NC(=O)[C@H](CC(C)C)NC(=O)C(C)C [Compound 117]	18,760 M-1 sec-1	1 µM			> 320 µM				
CCOC(=O)/C=C/[C@H](CCC(N)=O)NC(=O)[C@H](Cc1ccc(COC)cc1)NC(=O)[C@H](CC(C)C)NC(=O)OCc1ccccc1 [Compound 140]	7,122 M-1 sec-1	39 µM			> 320 µM				
CCOC(=O)/C=C/[C@H](COC(=O)NC(=O)CCl)NC(=O)[C@H](Cc1ccccc1)NC(=O)[C@H](CC(C)C)NC(=O)OCc1ccccc1 [Compound 122]	1,252 M-1 sec-1	1.78 µM			10 µM				
CC(=O)N1CC/C(=C\[C@H](CCC(N)=O)NC(=O)[C@H](Cc2ccc(F)cc2)NC(=O)[C@H](CSc2ccccc2)NC(=O)SC2CCCC2)C1=O [Compound 181]	1,000,000 M-1 sec-1	0.1 µM			> 100 µM				
CC(C)C[C@H](NC(=O)OCc1ccccc1)C(=O)N[C@@H](Cc1ccccc1)C(=O)N[C@H](/C=C/C=O)CCC(N)=O [Compound 81]	124,000 M-1 sec-1	8 µM	112 µM						
CCOC(=O)/C=C/[C@H](CCC(N)=O)NC(=O)[C@H](Cc1ccccc1)NC(=O)[C@H](CC(C)C)NC(=O)OC [Compound 110]	9,072 M-1 sec-1	1.3 µM			> 320 µM				
CCOC(=O)/C=C/[C@H](CCC(N)=O)NC(=O)CNC(=O)[C@H](CC(C)C)NC(=O)OCc1ccccc1 [Compound 99]		141 µM			> 320 µM				10 (50) percent
CSc1cccc2c1N(C(=O)/C=C/[C@H](CCC(N)=O)NC(=O)[C@H](Cc1ccccc1)NC(=O)[C@H](CC(C)C)NC(=O)OCc1ccccc1)CC2 [Compound 96]	300 M⁻¹ s⁻¹	19.1 µM	100 µM						
